From patent publication US9308194B2, “Indanyloxyphenylcyclopropanecarboxylic acids” (Boehringer Ingelheim International GmbH, priority 2013, dated 2016)

Molecular target: human GPR40 receptor (Homo sapiens, UniProt O14842)
Assay: IP1 accumulation measurements using the IPOne assay system in 1321N1 cells stably expressing human GPR40 receptor
Format: cell-based
Details: 1321N1 cells expressing human GPR40, 1 hour stimulation at 37° C., Table 2
Method: (§1) IP1 is assayed according to the Manufacturer's description (Cisbio Bioassays, France). In brief, the assay is started by substitution of the culture medium by stimulation buffer (Hepes 10 mM, CaCl2 1 mM, MgCl2 0.5 mM, KCl 4.2 mM, NaCl 146 mM and glucose 5.5 mM, pH 7.4) without LiCl or with […]. Cells are stimulated for 1 hour at 37° C., 5 or 10% CO2 by addition of the compounds that are diluted in stimulation buffer containing LiCl yielding a final LiCl concentration of 50 mM. Assays are stopped by adding HTRF-conjugates (IP1-d2 and Anti-IP1 cryptate Tb) and lysis buffer, provided by the manufacturer. After an incubation time of 1 hour at room temperature plates are measured using an EnVision™, Perkin Elmer. The obtained fluorescence ratios at […] are then used to calculate the pEC50 values using GraphPad Prism 5 (Graphpad Software Inc, USA) or Assay Explorer 3.3 Software (Accelrys, Inc.) by interpolation using an IP1 reference curve and subsequent sigmoidal curve fitting allowing for a variable hill slope.
as §1, with “IP1 accumulation measurements using the IPOne assay system—1321N1 cells stably expressing human GPR40 receptor (Euroscreen, Belgium) are seeded 24 h before the assay in black clear-bottom collagen-coated or white 384-well plates in culture medium containing 10% FCS, 1% Na-Pyruvate and 400 μg/mL G418. IP1 is” for “IP1 is”

Chain of human GPR40 receptor (O14842 whole entry): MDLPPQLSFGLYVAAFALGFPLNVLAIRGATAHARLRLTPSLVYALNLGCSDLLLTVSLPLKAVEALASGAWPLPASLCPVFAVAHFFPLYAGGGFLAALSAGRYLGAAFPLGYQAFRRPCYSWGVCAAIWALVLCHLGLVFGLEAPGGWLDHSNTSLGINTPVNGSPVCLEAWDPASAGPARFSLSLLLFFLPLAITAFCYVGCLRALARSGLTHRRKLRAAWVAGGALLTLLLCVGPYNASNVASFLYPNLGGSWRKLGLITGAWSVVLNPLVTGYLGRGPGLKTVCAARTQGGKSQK

Structure (SMILES): O=C(NCC1CC1)c1ccc(Oc2ccc(F)c3c2CC[C@H]3Oc2ccc([C@H]3C[C@@H]3C(=O)O)cc2)cc1 [Example 18]
- EC50: 6 nM

Structure (SMILES): O=C(NC1CCOCC1)c1ccc(Oc2ccc(F)c3c2CC[C@H]3Oc2ccc([C@H]3C[C@@H]3C(=O)O)cc2)cc1 [Example 21]
- EC50: 3 nM

Structure (SMILES): O=C(O)[C@H]1C[C@@H]1c1ccc(O[C@@H]2CCc3c(Oc4ccc(OCc5ccccc5)cc4)ccc(F)c32)cc1 [Example 1]
- EC50: 6 nM

Structure (SMILES): COCCOc1ccc(Oc2ccc(F)c3c2CC[C@H]3Oc2ccc([C@H]3C[C@@H]3C(=O)O)cc2)cc1 [Example 8]
- EC50: 5 nM

Structure (SMILES): O=C(O)[C@H]1C[C@@H]1c1ccc(O[C@@H]2CCc3c(Oc4ccc(C(=O)N5CCOCC5)cc4)ccc(F)c32)cc1 [Example 22]
- EC50: 27 nM

Structure (SMILES): Cc1cccc(C)c1S(=O)(=O)c1cccc2c1CC[C@H]2Oc1ccc([C@H]2C[C@@H]2C(=O)O)cc1 [Example 42]
- EC50: 4 nM

Structure (SMILES): N#Cc1ccc(Oc2c(F)cc(F)c3c2CC[C@H]3Oc2ccc([C@H]3C[C@@H]3C(=O)O)cc2)cc1 [Example 28]
- EC50: 1 nM

Structure (SMILES): O=C(O)[C@H]1C[C@@H]1c1ccc(O[C@@H]2CCc3c(Oc4ccc(OCCO)cc4)ccc(F)c32)cc1 [Example 10]
- EC50: 7 nM

Structure (SMILES): Cc1cc(C#N)cc(C)c1S(=O)(=O)c1cccc2c1CC[C@H]2Oc1ccc([C@H]2C[C@@H]2C(=O)O)cc1 [Example 41]
- EC50: 12 nM

Structure (SMILES): O=C(O)[C@H]1C[C@@H]1c1ccc(O[C@@H]2CCc3c(Oc4ccc(OC5CCOCC5)c(F)c4)ccc(F)c32)cc1 [Example 12]
- EC50: 4 nM

Structure (SMILES): COCCOc1ccc(Oc2ccc(F)c3c2CC[C@H]3Oc2ccc([C@H]3C[C@@H]3C(=O)O)cc2)cc1F [Example 13]
- EC50: 8 nM

Structure (SMILES): CC(C)(O)COc1ccc(Oc2ccc(F)c3c2CC[C@H]3Oc2ccc([C@H]3C[C@@H]3C(=O)O)cc2)cc1 [Example 9]
- EC50: 5 nM

Structure (SMILES): CN(CCO)C(=O)c1ccc(Oc2ccc(F)c3c2CC[C@H]3Oc2ccc([C@H]3C[C@@H]3C(=O)O)cc2)cc1 [Example 19]
- EC50: 48 nM

Structure (SMILES): CNC(=O)c1ccc(Oc2ccc(F)c3c2CC[C@H]3Oc2ccc([C@H]3C[C@@H]3C(=O)O)cc2)cc1 [Example 17]
- EC50: 9 nM

Structure (SMILES): O=C(O)[C@H]1C[C@@H]1c1ccc(O[C@@H]2CCc3c(Oc4ccc(OC5CCOCC5)cc4)ccc(F)c32)cc1 [Example 6]
- EC50: 2 nM

Structure (SMILES): O=C(O)[C@H]1C[C@@H]1c1ccc(O[C@@H]2CCc3c(Oc4ccccc4)ccc(F)c32)cc1 [Example 45, (1S,2S)-2-[4-((R)-7-Fluoro-4-phenoxy-indan-1-yloxy)-phenyl]-cyclopropanecarboxylic acid]
- EC50: 2 nM

Structure (SMILES): Cc1ccc2cc(Oc3ccc(F)c4c3CC[C@H]4Oc3ccc([C@H]4C[C@@H]4C(=O)O)cc3)ccc2n1 [Example 39]
- EC50: 6 nM

Structure (SMILES): Cc1nc2ccc(Oc3ccc(F)c4c3CC[C@H]4Oc3ccc([C@H]4C[C@@H]4C(=O)O)cc3)cc2s1 [Example 37]
- EC50: 2 nM

Structure (SMILES): CN(C)C(=O)c1ccc(Oc2ccc(F)c3c2CC[C@H]3Oc2ccc([C@H]3C[C@@H]3C(=O)O)cc2)cc1 [Example 20]
- EC50: 11 nM

Structure (SMILES): N#Cc1ccc(Oc2ccc(F)c3c2CC[C@H]3Oc2ccc([C@H]3C[C@@H]3C(=O)O)cc2)cc1 [Example 24]
- EC50: 2 nM

Structure (SMILES): CC(C)(O)CNC(=O)c1ccc(Oc2ccc(F)c3c2CC[C@H]3Oc2ccc([C@H]3C[C@@H]3C(=O)O)cc2)cc1 [Example 34]
- EC50: 16 nM

Structure (SMILES): N#Cc1ccc(Oc2ccc(F)c3c2CC[C@H]3Oc2ccc([C@H]3C[C@@H]3C(=O)O)cc2)c(F)c1 [Example 26]
- EC50: 19 nM

Structure (SMILES): CC(C)(O)CCOc1ccc(Oc2ccc(F)c3c2CC[C@H]3Oc2ccc([C@H]3C[C@@H]3C(=O)O)cc2)cc1 [Example 4]
- EC50: 5 nM

Structure (SMILES): Cn1ncc2ccc(Oc3ccc(F)c4c3CC[C@H]4Oc3ccc([C@H]4C[C@@H]4C(=O)O)cc3)cc21 [Example 36]
- EC50: 2 nM

Structure (SMILES): Cc1nc(-c2ccc(Oc3ccc(F)c4c3CC[C@H]4Oc3ccc([C@H]4C[C@@H]4C(=O)O)cc3)cc2)no1 [Example 35]
- EC50: 3 nM

Structure (SMILES): CS(=O)(=O)CCCOc1ccc(Oc2ccc(F)c3c2CC[C@H]3Oc2ccc([C@H]3C[C@@H]3C(=O)O)cc2)cc1F [Example 15]
- EC50: 8 nM

Structure (SMILES): O=C(O)[C@H]1C[C@@H]1c1ccc(O[C@@H]2CCc3c(Oc4ccc(O)cc4)ccc(F)c32)cc1 [Example 2]
- EC50: 6 nM

Structure (SMILES): O=C(O)[C@H]1C[C@@H]1c1ccc(O[C@@H]2CCc3c(Oc4ccc(OCCN5CCOCC5)cc4)ccc(F)c32)cc1 [Example 14]
- EC50: 3 nM

Structure (SMILES): COc1cc(Oc2ccc(F)c3c2CC[C@H]3Oc2ccc([C@H]3C[C@@H]3C(=O)O)cc2)ccc1C#N [Example 27]
- EC50: 2 nM

Structure (SMILES): CCNC(=O)c1ccc(Oc2ccc(F)c3c2CC[C@H]3Oc2ccc([C@H]3C[C@@H]3C(=O)O)cc2)cc1 [Example 23]
- EC50: 12 nM

Structure (SMILES): O=C(O)C1CC1c1ccc(O[C@@H]2CCc3c2cccc3S(=O)(=O)c2ccccc2)cc1 (stereo partly shown) [Example 43]
- EC50: 37 nM

Structure (SMILES): COc1ccc(Cc2c(C#N)ccc3c2CC[C@H]3Oc2ccc([C@H]3C[C@@H]3C(=O)O)cc2)cn1 [Example 46, (1S,2S)-2-{4-[(R)-5-Cyano-4-(6-methoxy-pyridin-3-ylmethyl)-indan-1-yloxy]-phenyl}-cyclopropanecarboxylic acid]
- EC50: 8 nM

Structure (SMILES): Cc1noc(-c2ccc(Oc3ccc(F)c4c3CC[C@H]4Oc3ccc([C@H]4C[C@@H]4C(=O)O)cc3)cc2)n1 [Example 32]
- EC50: 4 nM

Structure (SMILES): Cc1cc(C#N)ccc1Oc1ccc(F)c2c1CC[C@H]2Oc1ccc([C@H]2C[C@@H]2C(=O)O)cc1 [Example 25]
- EC50: 2 nM

Structure (SMILES): CS(=O)(=O)CCCOc1ccc(Oc2ccc(F)c3c2CC[C@H]3Oc2ccc([C@H]3C[C@@H]3C(=O)O)cc2)cc1 [Example 7]
- EC50: 4 nM

Structure (SMILES): CS(=O)(=O)c1ccc(Oc2ccc(F)c3c2CC[C@H]3Oc2ccc([C@H]3C[C@@H]3C(=O)O)cc2)cc1 [Example 38]
- EC50: 27 nM

Structure (SMILES): Cc1nc(-c2ccc(Oc3ccc(F)c4c3CC[C@H]4Oc3ccc([C@H]4C[C@@H]4C(=O)O)cc3)cc2)nn1C [Example 33]
- EC50: 5 nM

Structure (SMILES): O=C(O)[C@H]1C[C@@H]1c1ccc(O[C@@H]2CCc3c(Oc4ccc(OCc5ccccc5)c(F)c4)ccc(F)c32)cc1 [Example 3]
- EC50: 5 nM

Structure (SMILES): O=C(O)[C@H]1C[C@@H]1c1ccc(O[C@@H]2CCc3c(Oc4ccc(OCC5(O)CCOCC5)cc4)ccc(F)c32)cc1 [Example 5]
- EC50: 7 nM

Structure (SMILES): CC(C)c1ccn(-c2ccc(Oc3ccc(F)c4c3CC[C@H]4Oc3ccc([C@H]4C[C@@H]4C(=O)O)cc3)cc2)n1 [Example 30]
- EC50: 8 nM

Structure (SMILES): N#Cc1ccc2c(c1Cc1ccc(Cl)nc1)CC[C@H]2Oc1ccc([C@H]2C[C@@H]2C(=O)O)cc1 [Example 40, (1S,2S)-2-{4-[(R)-4-(6-Chloro-pyridin-3-ylmethyl)-5-cyano-indan-1-yloxy]-phenyl}-cyclopropanecarboxylic acid]
- EC50: 45 nM

Structure (SMILES): CC(C)(O)CCOc1ccc(Oc2ccc(F)c3c2CC[C@H]3Oc2ccc([C@H]3C[C@@H]3C(=O)O)cc2)cc1F [Example 11]
- EC50: 3 nM

Structure (SMILES): O=C(O)c1ccc(Oc2ccc(F)c3c2CC[C@H]3Oc2ccc([C@H]3C[C@@H]3C(=O)O)cc2)cc1 [Example 16]
- EC50: 92 nM

Structure (SMILES): O=C(O)C1CC1c1ccc(O[C@@H]2CCc3c2cccc3[S+]([O-])c2ccccc2)cc1 (stereo partly shown) [Example 44]
- EC50: 197 nM

Structure (SMILES): Cc1cc(Oc2ccc(F)c3c2CC[C@H]3Oc2ccc([C@H]3C[C@@H]3C(=O)O)cc2)cc(C)c1OCCC(C)(C)O [Example 31]
- EC50: 9 nM

Structure (SMILES): Cn1nnc(-c2ccc(Oc3ccc(F)c4c3CC[C@H]4Oc3ccc([C@H]4C[C@@H]4C(=O)O)cc3)cc2)n1 [Example 29]
- EC50: 3 nM
